Data taken from US20250134892A1, “COMBINATION OF COMPOUNDS FOR TREATING VASCULAR DISEASES COMPRISING PDE5 INHIBITOR, ARGININE AND N-ACETYLCYSTEINE” (Future Pharmtech Inc., priority 2022, published 2025).
Read-outs that look alike come from different tables or passages of the source.

Assays:
[1] = tested on: erectile dysfunction; conditions: sildenafil alone, placebo 25%, cited from earlier work
[2] = tested on: HUVEC; test: Quantitative free radical ROS content (Cm-H2DCFDA); format: cell-based, Human; conditions: vascular endothelial cells, treatment 10 min (FIG. 6)
Experimental: (§1) Sildenafil, arginine, N-acetylcysteine, and S-nitroso-N-acetylpenicillamine (SNAP) are dissolved and diluted in phosphate buffered saline (PBS). […] The solutions are stored at a temperature of 4° C.
(§2) Human umbilical vein endothelial cells (HUVEC) obtained from Bioresource Collection and Research Center (Hsinchu, Taiwan) were cultured in Ham's F-12K (Sigma-Aldrich) with endothelial cell growth supplement (Millipore), heparin (Sigma-Aldrich), 2.2 mg/mL sodium bicarbonate, and 10% FBS (Gibco). HUVEC at passage 5 to 15 were used in all applications. Human pulmonary artery vascular smooth muscle (PAVSM) cells and growth media were obtained from Lonza Inc. (Walkersville, MD., USA). Cells were grown in a 5% CO2 atmosphere at 37° C.
For cell treatments, HUVEC and PAVSM cells were grown in confluence respectively on the upper and lower wells of Transwell® units. […]
Detection Mode of Quantitative Free Radical ROS Content
ROS detection studies were performed using a Cm-H2DCFDA ROS detection kit (Invitrogen, Grand Island, NY, USA). […] ROS generation was measured every 10 min up to 2 h with a micro-reader at 490 nm excitation, 530 nm emission. […] Samples were then measured immediately using a Promega microreader. ROS levels generated by 2.5×10^4 viable treated cells were expressed as the percentage of ROS produced by an equal number of viable negative control cells.

[3] = tested on: HUVEC; test: Vascular fibrosis index: lipid peroxidation (malondialdehyde, MDA); format: cell-based, Human; conditions: vascular endothelial cells, treatment 10 min (FIG. 7)
Experimental: as §1, §2
For cell treatments, HUVEC and PAVSM cells were grown in confluence respectively on the upper and lower wells of Transwell® units. Culture medium volume in each upper chamber was 1.5 mL, and in each lower chamber was 2.5 mL. […]
Lipid peroxidation in HUVEC protein extracts was quantified measuring the concentration of MDA by a spectrofluorometric assay using an “MDA assay kit” as described by Richard et al., 1992 (Richard et al. 1992). Quantification was achieved by parallel measurements of a standard curve of known MDA concentrations, and results were expressed as level change of the control.

[4] = tested on: Endothelial nitric oxide synthase (eNOS); test: Expression amount of endothelial nitric oxide synthase (eNOS assay kit); format: cell-based, Human; conditions: vascular endothelial cells, treatment 10 min (FIG. 3)
Experimental: Sildenafil, arginine, N-acetylcysteine, and S-nitroso-N-acetylpenicillamine (SNAP) are dissolved and diluted in phosphate buffered saline (PBS). […] The solutions are stored at a temperature of 4° C. […] Human umbilical vein endothelial cells (HUVEC) obtained from Bioresource Collection and Research Center (Hsinchu, Taiwan) were cultured in Ham's F-12K (Sigma-Aldrich) with endothelial cell growth supplement (Millipore), heparin (Sigma-Aldrich), 2.2 mg/mL sodium bicarbonate, and 10% FBS (Gibco). HUVEC at passage 5 to 15 were used in all applications. Human pulmonary artery vascular smooth muscle (PAVSM) cells and growth media were obtained from Lonza Inc. (Walkersville, MD., USA). Cells were grown in a 5% CO2 atmosphere at 37° C. For cell treatments, HUVEC and PAVSM cells were grown in confluence respectively on the upper and lower wells of Transwell® units. Culture medium volume in each upper chamber was 1.5 mL, and in each lower chamber was 2.5 mL. […] All supernatants of HUVEC and PAVSM were collected right after the treatments for the NO amount analysis. […] Analysis of Expression Amount of Endothelial Nitric Oxide Synthase Endothelial nitric oxide synthase (eNOS) activity was assessed using the eNOS assay kit (Promega). […] Relative Luminance Unit (RLU) emitted by the product was measured using a microreader.

[5] = tested on: Human pulmonary artery vascular smooth muscle (PAVSM) cells; test: cGMP in smooth muscle cells (cGMP immunoassay); format: cell-based; conditions: for amount of cGMP compared with control group (drug treatment for 0 min): 100 nM sildenafil
Experimental: Sildenafil, arginine, N-acetylcysteine, and S-nitroso-N-acetylpenicillamine (SNAP) are dissolved and diluted in phosphate buffered saline (PBS). […] The solutions are stored at a temperature of 4° C. […] Human umbilical vein endothelial cells (HUVEC) obtained from Bioresource Collection and Research Center (Hsinchu, Taiwan) were cultured in Ham's F-12K (Sigma-Aldrich) with endothelial cell growth supplement (Millipore), heparin (Sigma-Aldrich), 2.2 mg/mL sodium bicarbonate, and 10% FBS (Gibco). HUVEC at passage 5 to 15 were used in all applications. Human pulmonary artery vascular smooth muscle (PAVSM) cells and growth media were obtained from Lonza Inc. (Walkersville, MD., USA). Cells were grown in a 5% CO2 atmosphere at 37° C. For cell treatments, HUVEC and PAVSM cells were grown in confluence respectively on the upper and lower wells of Transwell® units. Culture medium volume in each upper chamber was 1.5 mL, and in each lower chamber was 2.5 mL. […] All supernatants of HUVEC and PAVSM were collected right after the treatments for the NO amount analysis. HUVEC cells and PAVSM cells were rinsed in ice-cold phosphate buffered saline and then solubilized in ice-cold 6% trichloroacetic acid for the protein extraction. Samples were stored at −80° until the assays. Analysis of cGMP in Smooth Muscle Cells […] Nitric Oxide-Cyclic GMP Signaling Pathway as an Illustrative Example and Derivation of the General Case; PLOS COMPUTATIONAL BIOLOGY, DOI:10.1371/journal.pcbi.1004822 Mar. 17, 2016). cGMP formation was measured by immunoassay according to the cGMP Assay (Cayman Chemical Co., Ann Arbor, MI).

[6] = tested on: HUVEC; test: Vascular permeability analysis: VEGF-A release content; format: cell-based, Human; conditions: vascular endothelial cells, treatment 10 min (FIG. 8)
Experimental: as §1, §2
For cell treatments, HUVEC and PAVSM cells were grown in confluence respectively on the upper and lower wells of Transwell® units. Culture medium volume in each upper chamber was 1.5 mL, and in each lower chamber was 2.5 mL. Confluent HUVEC cells were treated with regular medium in the presence or absence of S, SS, SN, SSN and SAN for 0, 10, 20, 30 and 60 min. All supernatants of HUVEC and PAVSM were collected right after the treatments for the NO amount analysis. […]
VEGFA amount was assessed using the VEGFA assay kit (Promega). […] Relative Absorbance Unit at 540 nm emitted by the product was measured using a microreader.

[7] = tested on: Human umbilical vein endothelial cells (HUVEC); test: Nitric oxide release amount from endothelial cells (NO assay kit); format: cell-based; conditions: vascular endothelial cells; for release amount of nitric oxide compared with control group (drug treatment for 0 min): 100 nM sildenafil
Experimental: Sildenafil, arginine, N-acetylcysteine, and S-nitroso-N-acetylpenicillamine (SNAP) are dissolved and diluted in phosphate buffered saline (PBS). […] The solutions are stored at a temperature of 4° C. […] Human umbilical vein endothelial cells (HUVEC) obtained from Bioresource Collection and Research Center (Hsinchu, Taiwan) were cultured in Ham's F-12K (Sigma-Aldrich) with endothelial cell growth supplement (Millipore), heparin (Sigma-Aldrich), 2.2 mg/mL sodium bicarbonate, and 10% FBS (Gibco). HUVEC at passage 5 to 15 were used in all applications. Human pulmonary artery vascular smooth muscle (PAVSM) cells and growth media were obtained from Lonza Inc. (Walkersville, MD., USA). Cells were grown in a 5% CO2 atmosphere at 37° C. For cell treatments, HUVEC and PAVSM cells were grown in confluence respectively on the upper and lower wells of Transwell® units. Culture medium volume in each upper chamber was 1.5 mL, and in each lower chamber was 2.5 mL. […] All supernatants of HUVEC and PAVSM were collected right after the treatments for the NO amount analysis. HUVEC cells and PAVSM cells were rinsed in ice-cold phosphate buffered saline and then solubilized in ice-cold 6% trichloroacetic acid for the protein extraction. Samples were stored at −80° until the assays. Analysis of Nitric Oxide Release Amount from Endothelial Cells The nitric oxide amount was assessed using the NO assay kit (Promega). After treatment, the supernatants of HUVEC were collected for the NO assay reagent kit, and 200 μL per well was applied according to the manufacturer's instructions. Relative Luminance Unit (RLU) emitted by the product was measured using a microreader.

[8] = sildenafil alone, healthy elderly subjects (65 years or older); cited from earlier work

For `CCCc1nn(C)c2c(=O)[nH]c(-c3cc(S(=O)(=O)N4CCN(C)CC4)ccc3OCC)nc12` [SILD, sildenafil], the “proportion of disease improvement” value ([1]; 25 mg) is given as 62%, the “proportion of disease improvement” value ([1]; 50 mg) is given as 74% and the “proportion of disease improvement” value ([1]; 100 mg) is given as 82%. For the same compound, the “amount of ROS compared with control group (with no drug treatment)” value [2] was “about 2.8 folds”, the “amount of MDA compared with control group (with no drug treatment)” value [3] was “about 2.8 folds” and the “expression amount of nitric oxide synthase compared with control group (with no drug)” value [4] was “about 2 folds”. The “amount of cGMP compared with control group (drug treatment for 0 min)” value ([5]; treatment 10 min (FIG. 4)) was “about 2.6 folds”, the “amount of cGMP compared with control group (drug treatment for 0 min)” value ([5]; treatment 20 min (FIG. 4)) was about 3 folds and the “amount of cGMP compared with control group (drug treatment for 0 min)” value ([5]; treatment 30 min (FIG. 4)) was about 4.7 folds. The “amount of cGMP compared with control group (drug treatment for 0 min)” value ([5]; treatment 60 min (FIG. 4)) was about 5.5 folds, the “amount of cGMP compared with control group (with no drug)” value ([5]; 10-min treatment (FIG. 5)) was “about 2.6 folds” and the “amount of VEGFA compared with control group (with no drug treatment)” value [6] was “about 3.9 folds”. The “release amount of nitric oxide compared with control group (drug treatment for 0 min)” value ([7]; treatment 10 min (FIG. 1)) was “about 1.6 folds”, the “release amount of nitric oxide compared with control group (drug treatment for 0 min)” value ([7]; treatment 20 min (FIG. 1)) was “about 2.6 folds” and the “release amount of nitric oxide compared with control group (drug treatment for 0 min)” value ([7]; treatment 30 min (FIG. 1)) was “about 3.1 folds”. The “release amount of nitric oxide compared with control group (drug treatment for 0 min)” value ([7]; treatment 60 min (FIG. 1)) was “about 3.5 folds”, the “release amount of nitric oxide compared with control group (with no drug)” value ([7]; 10-min drug treatment (FIG. 2)) was “about 1.6 folds” and the “clearance rate in elderly subjects” value [8] was “decreased”.
